Laboratory results reported in patent US11345697B1, “Crystalline berberine ascorbate salt, methods of preparation and applications thereof” (Beiture LLC, priority 2020, dated 2022).

What was measured:
[1] = Thermogravimetry analysis (TGA); type: physicochemical; details: for TGA mass loss: heating from about 25° C. to about 100° C.
Description: TGA was performed on samples prepared according to standard methods using a Q SERIES™ Q5000 thermogravimetry analyzer available from TA Instruments INSTRUMENTS® (New Castle, Del.). A sample (approximately 5 mg) was placed into an aluminum sample pan and transferred to the TGA furnace. The instrument was purged with nitrogen at 50 mL/min and data collected between 25° C. and 300° C., using a dynamic heating rate of 10° C./minute. Thermal data was analyzed using standard software, e.g., Universal Analysis v.4.5A from TA INSTRUMENTS®.

[2] = Description: 50 mg of crystalline berberine ascorbate Form A (from example 1) was suspended in 0.20 ml of water.
50 mg of crystalline berberine chloride dihydrate (from Sigma-Aldrich) was suspended in 10 ml of water. […] The solubility residue was isolated by filtration.

[3] = Hygroscopicity / form stability versus relative humidity; type: physicochemical; details: up to 70% relative humidity, without a form change
[4] = cited from earlier work
[5] = 25° C.; AAPS PharmSciTech, 2010, 11(3), 1466-1475; cited from earlier work
Remark: listed apart in the source

## COc1ccc2c(c1OC)C(CC(=O)c1ccccc1)N1CCc3cc4c(cc3C1=C2)OCO4 (stereo not drawn) [berberine methyl phenyl ketone adduct]
[1]
  TGA mass loss: 0.3%

## COc1ccc2cc3[n+](cc2c1OC)CCc1cc2c(cc1-3)OCO2 [crystalline berberine ascorbate Form A, berberine ascorbate]
[1]; heated to about 150° C.
  weight loss in thermal study: no significant weight loss
[1]
  TGA mass loss: 0.4%
[2]
  aqueous solubility, times higher than commercial berberine hydrochloride: more than 50 times
  solubility in water: more than 250 g/L
[3]
  hygroscopicity: non-hygroscopic

## COc1ccc2c(c1OC)C(CC(=O)C(C)C)N1CCc3cc4c(cc3C1=C2)OCO4 (stereo not drawn) [berberine methyl isopropyl ketone adduct]
[1]
  TGA mass loss: 0.1%

## COc1ccc2c(c1OC)C(CC(C)=O)N1CCc3cc4c(cc3C1=C2)OCO4 (stereo not drawn) [crystalline berberine acetone adduct, berberine acetone adduct]
[1]
  TGA mass loss: 0.3%

## COc1ccc2cc3[n+](cc2c1OC)CCc1cc2c(cc1-3)OCO2 [crystalline berberine ascorbate Form B, berberine ascorbate]
[1]
  TGA mass loss: 2.5%

## COc1ccc2c(c1OC)C(CC(=O)CC(C)C)N1CCc3cc4c(cc3C1=C2)OCO4 (stereo not drawn) [berberine methyl isobutyl ketone adduct]
[1]
  TGA mass loss: 0.3%

## COc1ccc2cc3[n+](cc2c1OC)CCc1cc2c(cc1-3)OCO2 [berberine chloride]
[4]; elevated temperature or low humidity environment
  loss of water: more than 8%
[4]; in water or high humidity environment, converts to tetrahydrate form
  uptake of water: about 8%
[2]
  solid form of solubility residue (powder X-ray pattern): converted berberine chloride tetrahydrate
  solubility in water: less than 5 g/L
[5]
  aqueous solubility (literature value): 1960 ± 110 µg/mL

## CCC(=O)CC1c2c(ccc(OC)c2OC)C=C2c3cc4c(cc3CCN21)OCO4 (stereo not drawn) [berberine methyl ethyl ketone adduct]
other
  melting point: ~ 130 °C
[1]
  TGA mass loss: 0.4%

## COc1ccc2c(c1OC)C(C1CCCCC1=O)N1CCc3cc4c(cc3C1=C2)OCO4 (stereo not drawn) [berberine cyclohexanone adduct]
[1]
  TGA mass loss: 0.3%
